Test results as given in patent US20260125375A1 (Pfizer Inc., priority 2022, published 2026).

What was measured:
C-CBL (46-435) = target: T1, C-CBL (46-435) (Homo sapiens, UniProt P22681); assay: Surface Plasmon Resonance (SPR) assay, binding affinity and kinetics, C-CBL; details: SPR at 10° C., biotinylated C-CBL (46-435) on streptavidin chip; geometric mean; read-out: C-CBL SPR Kd (nM) GMean
T1 construct: N-terminal biotinylated WT CBL-B (36-427) and C-CBL (46-435) were captured on a streptavidin (SA) coated sensor chip
T1 sequence (P22681 46-435): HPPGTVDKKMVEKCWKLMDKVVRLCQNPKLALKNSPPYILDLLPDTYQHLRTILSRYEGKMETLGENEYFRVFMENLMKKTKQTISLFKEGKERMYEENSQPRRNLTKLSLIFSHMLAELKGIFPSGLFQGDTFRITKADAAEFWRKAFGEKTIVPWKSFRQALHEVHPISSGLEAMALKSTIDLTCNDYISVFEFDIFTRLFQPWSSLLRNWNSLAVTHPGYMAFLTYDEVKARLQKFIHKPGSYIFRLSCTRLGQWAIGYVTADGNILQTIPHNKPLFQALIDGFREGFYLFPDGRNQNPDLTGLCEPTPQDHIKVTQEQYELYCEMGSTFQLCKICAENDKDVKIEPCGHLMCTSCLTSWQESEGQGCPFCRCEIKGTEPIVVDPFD
Summary of the method: (§1)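 SPR kinetics at 10° C, run either single-cycle (0.001–1 μM, 3-fold, 6 points, 120 s on, >5400 s off) or multi-cycle (10 points, 2-fold, top 10 or 100 μM, 90 s on). Proteins were N-biotinylated CBL-B (36-427) and C-CBL (46-435) on SA surfaces, in pH 7.2 HEPES, 2% DMSO.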

CBL-B (residues 36-427) = target: T2, CBL-B (residues 36-427) (Homo sapiens, UniProt Q13191); assay: Ligand Displacement Assay (LDA), HTRF competitive binding against BODIPY-labeled fluorescent tracer, CBL-B; details: geometric mean of the number of tests, read-out: CBL-B Ki (nM) GMean
T2 construct: Purified CBL-B (residues 36-427) and C-CBL (residues 46-435) proteins from baculovirus-infected insect cells; made in house; host or cells: baculovirus-infected insect cells
Summary of the method: (§2)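 Terbium-streptavidin donor on BirA-biotinylated, AviTagged protein from baculovirus-infected insect cells; BODIPY tracer as acceptor. Compound titrations were three-fold and duplicated, […] with 2% DMSO final.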

WT CBL-B (36-427) = target: T3, WT CBL-B (36-427) (Homo sapiens, UniProt Q13191); assay: Surface Plasmon Resonance (SPR) assay, binding affinity and kinetics, CBL-B; details: SPR at 10° C., biotinylated WT CBL-B (36-427) on streptavidin chip; geometric mean; read-out: CBL-B SPR Kd (nM) GMean
T3 construct: N-terminal biotinylated WT CBL-B (36-427) and C-CBL (46-435) were captured on a streptavidin (SA) coated sensor chip
Summary of the method: as §1

C-CBL (residues 46-435) = target: T4, C-CBL (residues 46-435) (Homo sapiens, UniProt P22681); assay: Ligand Displacement Assay (LDA), HTRF competitive binding against BODIPY-labeled fluorescent tracer, C-CBL; details: geometric mean of the number of tests, read-out: C-CBL Ki (nM) GMean
T4 construct: Purified CBL-B (residues 36-427) and C-CBL (residues 46-435) proteins from baculovirus-infected insect cells; made in house; host or cells: baculovirus-infected insect cells
T4 sequence (P22681 46-435): T1 sequence (P22681 46-435)
Summary of the method: as §2

Structure (SMILES)	Kd (C-CBL (46-435))	Ki (CBL-B (residues 36-427))	Kd (WT CBL-B (36-427))	Ki (C-CBL (residues 46-435))
Cc1nccc2c(-c3cccc([C@H](c4nncn4C)C4CCC4)c3)n[nH]c12 [Example A7, 3-{3-[(R)-cyclobutyl(4-methyl-4H-1,2,4-triazol-3-yl)methyl]phenyl}-7-methyl-1H-pyrazolo[3,4-c]pyridine]	1300 nM	83.8 nM	31 nM	767 nM
C[C@H](c1nc(C(F)(F)F)cc2c(-c3cccc(C4(Cc5nncn5C)COC4)c3)n[nH]c12)N1CCNCC1 (single isomer, unassigned) [Example D54]	61.7 nM	20.9 nM	8.2 nM	80 nM
Cn1cnnc1[C@@H](c1cccc(-c2n[nH]c3c(CNC4CCNC(=O)C4)nc(C(F)(F)F)cc23)c1)C1CCC1 (single isomer, unassigned) [Example C88]	59.7 nM	7.2 nM	4.8 nM	132 nM
CN1CC[C@H](N(C)c2nc(C(F)(F)F)cc3c(-c4cccc([C@H](c5nncn5C)C5CCC5)c4)n[nH]c23)C1 [Example J12, 3-{3-[(R)-cyclobutyl(4-methyl-4H-1,2,4-triazol-3-yl)methyl]phenyl}-N-methyl-N-[(3S)-1-methylpyrrolidin-3-yl]-5-(trifluoromethyl)-1H-pyrazolo[3,4-c]pyridin-7-amine]	240 nM	16.1 nM	16.1 nM	118 nM
Cn1cnnc1CC1(c2cccc(-c3n[nH]c4c(CN[C@H]5CCOC5)nc(C(F)(F)F)cc34)c2)COC1 [Example C50]	145 nM	24.7 nM	14.5 nM	90 nM
CC(N)c1nc(C(F)(F)F)cc2c(-c3cccc(C4(Cc5nncn5C)COC4)c3)n[nH]c12 (single isomer, unassigned) [Example K17, (1ξ)-1-[3-(3-{3-[(4-methyl-4H-1,2,4-triazol-3-yl)methyl]oxetan-3-yl}phenyl)-5-(trifluoromethyl)-1H-pyrazolo[3,4-c]pyridin-7-yl]ethan-1-amine]	256 nM	44.6 nM	27.3 nM	145 nM
C[C@@H](c1nc(C(F)(F)F)cc2c(-c3cccc(C4(Cc5nncn5C)COC4)c3)n[nH]c12)N1CC[C@H](F)C1 (single isomer, unassigned) [Example D98]	217 nM	25.5 nM	46 nM	110 nM
Cn1cnnc1[C@@H](c1cccc(-c2n[nH]c3c(CNC4CCOCC4)nc(C(F)(F)F)cc23)c1)C1CCC1 [Example D85]	241 nM	23.4 nM	6.9 nM	237 nM
C[C@H](c1nc(C(F)(F)F)cc2c(-c3cccc(C4(Cc5nncn5C)COC4)c3)n[nH]c12)N1CCCC1 (single isomer, unassigned) [Example D48]	74.6 nM	16.1 nM	9.3 nM	44.9 nM
Cn1cnnc1[C@@H](c1cccc(-c2n[nH]c3c(CN4CCCCC4)nc(C(F)(F)F)cc23)c1)C1CCC1 [Example D95]	226 nM	40.7 nM	6.5 nM	360 nM
Cn1cnnc1CC1(c2cccc(-c3n[nH]c4c(CN5CC[C@H](F)C5)nc(C(F)(F)F)cc34)c2)COC1 [Example C73, 7-{[(3S)-3-fluoropyrrolidin-1-yl]methyl}-3-(3-{3-[(4-methyl-4H-1,2,4-triazol-3-yl)methyl]oxetan-3-yl}phenyl)-5-(trifluoromethyl)-1H-pyrazolo[3,4-c]pyridine]	94 nM	19.3 nM	9 nM	111 nM
CN1CC[C@H](Oc2nc(C(F)(F)F)cc3c(-c4cccc([C@H](c5nncn5C)C5CCC5)c4)n[nH]c23)C1 [Example J5, 3-{3-[(R)-cyclobutyl(4-methyl-4H-1,2,4-triazol-3-yl)methyl]phenyl}-7-{[(3S)-1-methylpyrrolidin-3-yl]oxy}-5-(trifluoromethyl)-1H-pyrazolo[3,4-c]pyridine]	137 nM	10 nM	3.3 nM	87.1 nM
